Entries after “also recorded” stand apart in the source; their conditions may differ.
What was measured:
WS1 [1] = assay: Coupled enzyme assay, WS substrate profile (TLC); format: biochemical, Marinobacter hydrocarbonoclasticus DSM 8798; details: coupled reaction; palmitic acid with hexadecanol, phytanic acid with phytol, phytanoyl-CoA with the alcohols named in the value
Protocol: (§1) Stock solutions of various substrates were prepared in 50 mM Tris-HCl buffer (pH 8) containing 1% gum arabic, 12.5 μg bovine serum albumin ml^−1, 0.1% taurocholate, and either 100 mM fatty acid, isoprenoid acid, fatty alcohol, or isoprenoid alcohol. Stock solutions were sonicated to disperse the substrates. Substrate profiles of the three WS were tested using coupled enzyme in vitro reactions in which the CoA synthetases Acs1 and Acs2 are added to synthesize the CoA-activated fatty acid phytanic acid substrates from corresponding acid precursors for the WS reactions. Assays were carried out in 500-μl reactions containing in 50 mM Tris-HCl buffer (pH 8.0), 12.5 μl of each acid, and alcohol substrate stock solution (final concentrations of each substrate of 250 μM), 10 mM MgCl2, 10 mM CoASH, 10 mM ATP, 5 mM TCEP, 0.1 U of inorganic pyrophosphatase, 0.25 μg of Acs1 and Acs2 CoA synthetase, and 0.5 μg of WS to be tested. Assays were incubated at 37° C. overnight before thin-layer chromatography (TLC) analysis of the reaction products.
(§2) In vitro WS assay samples were extracted with 500 μl of chloroformmethanol (1:1 [vol/vol]), and extracts were analyzed by TLC with Whatman normal phase silica gel 60 plates and developed using hexane-diethyl ether-acetic acid (90:10:1 [vol/vol/vol]). TLC plates were stained with either iodine vapor or anisaldehyde solution as described earlier (Jork et al., 1990. Thin-layer chromatography reagents and detection methods, vol. 1a. Physical and chemical detection methods: fundamentals, reagents. VHC, Weinheim, Germany). Palmitoyl palmitate and triolein were used as WE and TAG reference compounds, respectively.

WS2 [2] = biological target: T1, WS2 (Marinobacter nauticus, UniProt A3RE51); assay: Coupled enzyme assay, WS substrate profile (TLC); format: biochemical, Marinobacter hydrocarbonoclasticus DSM 8798; details: coupled reaction; palmitic acid with hexadecanol, phytanic acid with phytol, phytanoyl-CoA with the alcohols named in the value
Protocol: as §1, §2

WS2 [3] = biological target: T1, WS2; assay: Kinetic WS assay, spectrophotometric (CoA release, DTNB); format: biochemical, Marinobacter hydrocarbonoclasticus DSM 8798
Protocol: Assay reactions were preincubated at 37° C. for 5 min before the reactions were started by the addition of enzyme. Heat-denatured enzyme (99° C. for 15 min) was used as a negative control.
(§3) Acyl-CoA and fatty/isoprenoid alcohol specificity of WS2 was determined in the same manner as described for the kinetic WS assay with assumed saturating conditions containing both the fatty/isoprenoid alcohol and acyl-CoA substrates at a concentration of 1 mM. Acyl-CoA specificity was measured with hexadecanol as acyl acceptor, whereas palmitoyl-CoA was used as acyl donor to determine alcohol specificity.
A spectrophotometric assay was developed to determine the kinetic properties of WS1 and WS2. […] The specific activities of WS1, WS2, and Acinetobacter WS/DGAT were measured with palmitoyl-CoA and hexadecanol, palmitoyl-CoA and phytol, and phytanoyl-CoA and phytol. Phytanoyl-CoA for these assays was enzymatically synthesized from phytanic acid and CoA using the above-characterized isoprenoid/acyl-CoA synthetase Acs2.

Acinetobacter WS/DGAT = biological target: T2, Acinetobacter WS/DGAT (Acinetobacter baylyi, UniProt Q8GGG1); assay: as above; format: biochemical
T2 construct: His6 (N); made in house
T2 sequence (Q8GGG1 1-458): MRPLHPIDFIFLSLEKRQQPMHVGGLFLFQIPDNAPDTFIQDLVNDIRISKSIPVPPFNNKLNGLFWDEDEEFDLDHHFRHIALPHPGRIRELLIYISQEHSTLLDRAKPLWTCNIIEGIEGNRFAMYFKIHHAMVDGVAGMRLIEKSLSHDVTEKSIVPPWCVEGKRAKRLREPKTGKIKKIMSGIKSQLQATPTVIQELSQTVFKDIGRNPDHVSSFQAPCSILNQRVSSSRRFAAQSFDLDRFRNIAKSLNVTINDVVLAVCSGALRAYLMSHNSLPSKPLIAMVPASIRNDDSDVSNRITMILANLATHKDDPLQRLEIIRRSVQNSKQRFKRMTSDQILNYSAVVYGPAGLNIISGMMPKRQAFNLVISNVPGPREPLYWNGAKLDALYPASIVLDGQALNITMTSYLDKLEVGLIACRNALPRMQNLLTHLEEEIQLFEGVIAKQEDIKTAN
Protocol: (§4) WS activity was determined by monitoring CoA release using Ellman's reagent [5,5′-dithio-bis(2-nitrobenzoic acid); DTNB] at 412 nm (ε=13,600 M^−1 cm^−1) (Ellman, 1959. Arch. Biochem. Biophys. 82:70-77). Kinetic in vitro assays were performed in triplicate in 125 mM sodium phosphate buffer (pH 7.4) containing 0.1% Tergitol NP-11 detergent, 10 mM MgCl2, 1 mM DNTB, 250 μM palmitoyl-CoA, 1 to 250 μM hexadecanol, and 0.5 μg of WS enzyme. Assay reactions were preincubated at 37° C. for 5 min before the reactions were started by the addition of enzyme. Heat-denatured enzyme (99° C. for 15 min) was used as a negative control.
as §3, with “specificity. Isoprenoid WS activity of WS2 was determined with 250 μM HPLC purified phytanoyl-CoA and 250 μM phytol as substrates.” for “specificity.”
(§5) A spectrophotometric assay was developed to determine the kinetic properties of WS1 and WS2. The concentration of sulfhydryl groups of CoA released during the condensation reaction between fatty/isoprenoid CoA activated acids and alcohols was determined by using Ellman's reagent (DTNB) (Ellman, 1959. Arch. Biochem. Biophys. 82:70-77). The specific activities of WS1, WS2, and Acinetobacter WS/DGAT were measured with palmitoyl-CoA and hexadecanol, palmitoyl-CoA and phytol, and phytanoyl-CoA and phytol. Phytanoyl-CoA for these assays was enzymatically synthesized from phytanic acid and CoA using the above-characterized isoprenoid/acyl-CoA synthetase Acs2.

WS1 [4] = assay: as above; format: biochemical, Marinobacter hydrocarbonoclasticus DSM 8798
Protocol: as §4
as §3, with “specificity. Isoprenoid WS activity of WS2 was determined with 250 μM HPLC purified phytanoyl-CoA and 250 μM phytol as substrates.” for “specificity.”
as §5

WS2 [5] = biological target: T1, WS2; assay: WS2 kinetics on ethanol and oleoyl-CoA (DTNB); format: biochemical, Marinobacter hydrocarbonoclasticus
Protocol: (§6) […] Assay reactions were pre-incubated at 37° C. for 5 minutes before the reactions were started by the addition of enzyme.

[6] = substrate: CCCCCCCC/C=C\CCCCCCCC(=O)SCCNC(=O)CCNC(=O)[C@H](O)C(C)(C)COP(=O)(O)OP(=O)(O)OC[C@H]1O[C@@H](n2cnc3c(N)ncnc32)[C@H](O)[C@@H]1OP(=O)(O)O; assay: WS2 kinetics on ethanol and oleoyl-CoA (DTNB); format: biochemical, Marinobacter hydrocarbonoclasticus; details: other: steady state; varied substrate 10 μM-250 μM, other substrate (oleoyl-CoA or ethanol) 500 μM; pH 7.2; 37.0 °C
Protocol: as §6

[7] = substrate: CCCCCCCCCCCCCCCCO; assay: Kinetic WS assay, spectrophotometric (CoA release, DTNB); format: biochemical, Marinobacter hydrocarbonoclasticus DSM 8798; details: other: saturating palmitoyl-CoA (250 μM), various concentrations of hexadecanol; pH 7.4
[8] = co-substrate hexadecanol (C16), listed as palmitoyl-CoA
[9] = steady state, varied substrate 10 μM-250 μM, other substrate (oleoyl-CoA or ethanol) 500 μM

`CC(C)CCCC(C)CCCC(C)CCCC(C)CC(=O)SCCNC(=O)CCNC(=O)[C@H](O)C(C)(C)COP(=O)(O)OP(=O)(O)OC[C@H]1O[C@@H](n2cnc3c(N)ncnc32)[C@H](O)[C@@H]1OP(=O)(O)O` (stereo partly drawn) [Phytanoyl-CoA] was tested, and the “WE product formation by WS1 (TLC), in words” value (WS1 [1]) was “fatty alcohols were not condensed to phytanoyl-CoA; also recorded: produced isoprenoid WEs from phytanoyl-CoA and the isoprenoid alcohols phytol and farnesol”, the “WE product formation by WS2 (TLC), in words” value (WS2 [2]) was “fatty alcohols were not condensed to phytanoyl-CoA; also recorded: produced isoprenoid WEs from phytanoyl-CoA and the isoprenoid alcohols phytol and farnesol” and the “Mean sp act ± SD of Marinobacter WS2” value (WS2 [3]; co-substrate phytol) was 0.397 ± 0.099 mmol/min/mg. The “Mean sp act ± SD of Marinobacter WS2” value (WS2 [3]; co-substrate phytol, listed as phytanoyl-CoA) was 0.397 mmol/min/mg.

With `CCCCCCCCCCCCCCCC(=O)SCCNC(=O)CCNC(=O)[C@H](O)C(C)(C)COP(=O)(O)OP(=O)(O)OC[C@H]1O[C@@H](n2cnc3c(N)ncnc32)[C@H](O)[C@@H]1OP(=O)(O)O` [Palmitoyl-CoA, palmitoyl-CoA (C16:0)] the “Mean sp act ± SD of Marinobacter WS2” value (WS2 [3]; co-substrate hexadecanol (C16)) was 61.323 ± 1.79 mmol/min/mg, the “Mean sp act ± SD of Marinobacter WS2” value (WS2 [3]; [8]) was 61 mmol/min/mg and the “Mean sp act ± SD of Marinobacter WS2” value (WS2 [3]; co-substrate phytol) was 28.872 ± 2.13 mmol/min/mg. The “Acyl-CoA specificity of WS2” value (WS2 [3]; hexadecanol as acyl acceptor, both substrates 1 mM) was “clear preference”, the “WS2 more active than WS1 or Acinetobacter WS/DGAT in creating the hybrid WE” value (WS2 [3]; palmitoyl-CoA and phytol as substrates) was 20 fold and the “Mean sp act ± SD of Acinetobacter WS/DGAT” value (Acinetobacter WS/DGAT; co-substrate hexadecanol (C16)) was 0.389 ± 0.039 mmol/min/mg. For the same molecule, the “Mean sp act ± SD of Acinetobacter WS/DGAT” value (Acinetobacter WS/DGAT; [8]) was 0.38 mmol/min/mg, the “Mean sp act ± SD of Acinetobacter WS/DGAT” value (Acinetobacter WS/DGAT; co-substrate phytol) was 0.138 ± 0.003 mmol/min/mg and the “Mean sp act ± SD of Marinobacter WS1” value (WS1 [4]; co-substrate hexadecanol (C16)) was 1.338 ± 0.5 mmol/min/mg. For the same molecule, the “Mean sp act ± SD of Marinobacter WS1” value (WS1 [4]; [8]) was 1.3 mmol/min/mg and the “Mean sp act ± SD of Marinobacter WS1” value (WS1 [4]; co-substrate phytol) was 0.152 ± 0.011 mmol/min/mg.

For `CCO` [Ethanol], the “Kcat of WS2” value (WS2 [5]; steady state on ethanol and oleoyl-CoA) was 32 s⁻¹, the Km (WS2 [5]; [9]) was 17 µM and the “Vmax of WS2” value (WS2 [5]; [9]) was 1250 μmol (mg/min)^−1.

B1: WS2 (Marinobacter nauticus) (protein)
chain: MKRLGTLDASWLAVESEDTPMHVGTLQIFSLPEGAPETFLRDMVTRMKEAGDVAPPWGYKLAWSGFLGRVIAPAWKVDKDIDLDYHVRHSALPRPGGERELGILVSRLHSNPLDFSRPLWECHVIEGLENNRFALYTKMHHSMIDGISGVRLMQRVLTTDPERCNMPPPWTVRPHQRRGAKTDKEASVPAAVSQAMDALKLQADMAPRLWQAGNRLVHSVRHPEDGLTAPFTGPVSVLNHRVTAQRRFATQHYQLDRLKNLAHASGGSLNDIVLYLCGTALRRFLAEQNNLPDTPLTAGIPVNIRPADDEGTGTQISFMIASLATDEADPLNRLQQIKTSTRRAKEHLQKLPKSALTQYTMLLMSPYILQLMSGLGGRMRPVFNVTISNVPGPEGTLYYEGARLEAMYPVSLIAHGGALNITCLSYAGSLNFGFTGCRDTLPSMQKLAVYTGEALDELESLILPPKKRARTRK
B1 was tested, and the Km [6] was 23 µM, the kcat/Km [6] was 2.56 × 10^6 (M^−1 s^−1) M^−1 s^−1 and the “WS2 more active in vitro in producing acyl ester products than Acinetobacter WS/DGAT” value (WS2 [3]; in vitro) was “approximately 150 times”. The Km [7] was 44 µM, the Vmax [7] was 10 mmol/mg/min and the kcat [7] was 4,794 s^−1.
